One data set has as its target MOP (Homo sapiens, UniProt P35372). Briefly: In vitro cAMP activity at MOP (Table 10). Type of data set: cell-based. Particulars: cAMP inhibition, four-parameter regression. How it is done:
(§1) The CP series compounds were assayed as follows: The assay was performed using a 96 well ½ area plate. The different cAMP standard solutions (3 μL/well) were plated in duplicate. The different concentrations of drug (3 μL/well), and control solutions (3 μL/well) were plated in triplicate. Following this, the acceptor bead mixture (3 μL/well) was added to the respective sets—either cAMP standard curve or the treatment. This was covered and incubated on the orbital shaker for 60 minutes at 37° C. Then, the donor bead mixture (10 μL/well) was added to each well. This was incubated at room temperature overnight on the orbital shaker.
(§2) For DP-11-06 the assay was carried out in the same way as for the CP compounds except it was incubated for 30 mins at 37° C.
(§3) For the CP series compounds and DP-11-06, the Ensight® Multimode Plate Reader was used to quantify the fluorescence units of each plate. Before reading, each plate was centrifuged at 280 g for 30 seconds. Using GraphPad Prism7® Software, cAMP concentrations were determined by fit spline/LOWESS analysis. The cAMP standard curve was used for interpolation at this point. The cAMP concentrations were then normalized to the highest cAMP concentration recorded and analyzed by one-way ANOVA for multiple comparisons. The IC50 for each compound was then calculated using GraphPad Prism7® with non-linear regression analysis using four parameter curve fitting.
(§4) In this regard, a different regression analysis method was adopted on the above cAMP experiments. Particularly, a new non-linear regression (four-parameter) was adopted to better account for hill slope, thereby improving the regression fit.

The target of a further data set is KOP (Homo sapiens, UniProt P41145). Briefly: In vitro cAMP activity at KOP (Table 10). Particulars: cAMP inhibition, four-parameter regression, normalised to U50488H. The class given is cell-based. The method, then:
as §1, §2, §3
(§5) The results shown in Table 10 utilized rat plasma. • Note that DP-7-11 and CP5 represent the same compound, and DP-7-12 and CP6 are the same compound. In this regard, a different regression analysis method was adopted on the above cAMP experiments. Particularly, a new non-linear regression (four-parameter) was adopted to better account for hill slope, thereby improving the regression fit.

The target in a further data set is DOP (Homo sapiens, UniProt P41143). Briefly: In vitro cAMP activity at DOP (Table 10). The class given is cell-based. Particulars: cAMP inhibition, four-parameter regression. How it is done:
as §1, §2, §3, §4

The nature of the next data set: Serum stability. The class given is in vitro ADME. Particulars: rat, serum, 37° C., LC-MS (Table 8). How it is done: (§6) Purified DP-7-11 (1 mg/mL) was dissolved in 0.1 M ammonium bicarbonate (NH4HCO3) buffer. To prepare a stock trypsin solution, 1 mg trypsin was dissolved in 50 mL of 0.1 M NH4HCO3 buffer. Equal volumes of the stock trypsin solution (62.5 μL) and DP-7-11 solution (62.5 μL) were incubated in 375 μL of 0.1M NH4HCO3 buffer in a 37° C. water bath. Aliquots of 100 μL were collected from this mixture at set time intervals of 0 min, up to 24 hours. Ice-cold acetonitrile containing 0.5% TFA was used to quench the reaction between DP-7-11 and trypsin at predetermined intervals, and just prior to HPLC or LC-MS analysis. The quenched samples were vortexed for 10 minutes followed by centrifugation at 12,000 rpm for a further 15 minutes. Supernatant was sampled and analysed using analytical RP-HPLC or LC-MS. Samples without trypsin acted as negative controls and were sampled at two intervals of 0 hour and 6 hours.
Serum stability of DP-7-11 was also performed. In this regard, rat serum replaced trypsin and NH4HCO3 buffer. Water was used as negative control in place of serum, with the stability study performed in an identical fashion to the trypsin study. […] DP-11-00 and DP-11-06 were tested in a similar manner.
(§7) As used in this serum and trypsin stability discussion, the term ‘degraded completely’ relates to the relevant compound being completely absent when tested. In other words, the compound being tested is not observed when tested.
This appears to indicate the improved metabolic stability of the present invention.
(§8) The serum and trypsin stability of DP-7-11 and DP-7-12 were tested (in some instances again) using LC-MS. The LC-MS utilized in this study was more sensitive than the LC-MS utilized in the above tests.

Data set [1] in a line: Plasma stability assay (Table 10). Particulars: rat plasma, 37° C., 100 uM peptide, One Phase Decay; read-out: Stability (t1/2, mins) Plasma. Type of data set: in vitro ADME.
Source text: (§9) FIG. 20 is a series of graphs showing the stability of selected peptides in a trypsin (left-hand graphs) and plasma (right-hand graphs) stability assay (data normalised to concentration of each peptide at t=0, determined by LCMS, within each substrate; data analysed using One Phase Decay nonlinear regression in Prism software and each experiment performed in triplicate; mean+/−SEM);
as §5
(§10) Plasma was collected in house from adult mixed-gender Wistar rats, prepared using 2% EDTA as per standard practice. Peptides were added to rat plasma samples at 37° C. (in a water bath) with final concentrations of 100 uM (1:9 peptide in water:plasma) and a 50 μL sample was immediately taken and precipitated in 150 μL cold acetonitrile (9:1 ACN:water). This sample became the baseline, or t=0 min sample. Plasma with peptide was immediately returned to the water bath and subsequent 50 μL samples were taken at 5, 10, 15, 30, 60 and 120 min. At each time point, the 50 μL of plasma collected was immediately added to cold ACN. Each collected plasma sample in ACN was directly vortexed for 30 seconds and then centrifuged at room temperature (13K rpm, 5 min). 150 μL of the supernatant was taken and directly placed in glass HPLC vials for LCMS analysis.

For data set [2], the target named is T1, bovine pancreatic trypsin (Bos taurus, UniProt P00760).
T1 construct: from tissue; host or cells: bovine pancreas
T1 sequence (P00760 24-246): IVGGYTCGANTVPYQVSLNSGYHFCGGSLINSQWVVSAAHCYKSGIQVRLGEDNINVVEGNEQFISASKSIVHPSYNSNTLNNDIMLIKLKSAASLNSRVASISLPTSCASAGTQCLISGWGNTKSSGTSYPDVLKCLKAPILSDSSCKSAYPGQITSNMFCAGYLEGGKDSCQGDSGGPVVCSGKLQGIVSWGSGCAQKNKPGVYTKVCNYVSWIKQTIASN
Briefly: Trypsin stability assay (Table 10). Type of data set: in vitro ADME. Particulars: for half-life: bovine pancreatic trypsin 2.5 μg/mL, 37° C., One Phase Decay, read-out: Stability (t1/2, mins) Trypsin.
Source text: as §9
as §10, with “Plasma with peptide was immediately returned to the water bath and subsequent 50 μL samples were taken at 5, 10, 15, 30, 60 and 120 min.” left out
The protocol for the trypsin stability assay was very similar to the plasma stability assay discussed above. The only difference was the use of a trypsin solution (bovine pancreatic trypsin 2.5 μg/mL in NH4HCO3 buffer, pH approx. 8-8.5, 37° C.) instead of rat plasma. Volumes, times and preparation protocols were exactly as mentioned above.

Another data set deals with T2, trypsin (Bos taurus, UniProt P00760).
T2 sequence (P00760 24-246): T1 sequence (P00760 24-246)
Briefly: Trypsin stability. Conditions: for Trypsin: complete degradation within: 37° C. (Table 8). Type of data set: in vitro ADME. How it is done:
as §6, §7, §8

*1 amine or outer side, *2 acyl side, *3 side chain or, on linkers, in order; H or OH if unused. Where a SMILES comes first, the peptide text is derived from it. Bridges are numbered along the chain shown (N, C = ends). [ ]: non-standard residue; d: D form. ξ: configuration not given here. Phe(4-NO2) = N[C@@H](Cc1ccc([N+](=O)[O-])cc1)C(=O)O; Phe(4-Cl) = N[C@@H](Cc1ccc(Cl)cc1)C(=O)O; NHCH2CMe2S = CC(C)(CN[*:1])S[*:2]; NMeR = CN[C@@H](CCCNC(=N)N)C(=O)O; X1 = CC(C)(CN[*:2])S[*:1]; ξC = NC(CS)C(=O)O; Sar = CNCC(=O)O

Sequence of MOP (P35372 whole entry): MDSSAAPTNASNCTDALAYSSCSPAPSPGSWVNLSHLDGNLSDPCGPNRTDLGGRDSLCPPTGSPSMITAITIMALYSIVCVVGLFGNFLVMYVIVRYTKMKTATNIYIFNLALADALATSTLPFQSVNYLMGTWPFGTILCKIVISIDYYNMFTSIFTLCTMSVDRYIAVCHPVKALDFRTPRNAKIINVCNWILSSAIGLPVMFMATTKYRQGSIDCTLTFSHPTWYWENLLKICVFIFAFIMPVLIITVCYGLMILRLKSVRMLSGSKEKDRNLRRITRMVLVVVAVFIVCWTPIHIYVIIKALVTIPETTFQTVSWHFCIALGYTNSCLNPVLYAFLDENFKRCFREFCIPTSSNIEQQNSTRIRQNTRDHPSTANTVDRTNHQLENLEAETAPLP
Sequence of DOP (P41143 whole entry): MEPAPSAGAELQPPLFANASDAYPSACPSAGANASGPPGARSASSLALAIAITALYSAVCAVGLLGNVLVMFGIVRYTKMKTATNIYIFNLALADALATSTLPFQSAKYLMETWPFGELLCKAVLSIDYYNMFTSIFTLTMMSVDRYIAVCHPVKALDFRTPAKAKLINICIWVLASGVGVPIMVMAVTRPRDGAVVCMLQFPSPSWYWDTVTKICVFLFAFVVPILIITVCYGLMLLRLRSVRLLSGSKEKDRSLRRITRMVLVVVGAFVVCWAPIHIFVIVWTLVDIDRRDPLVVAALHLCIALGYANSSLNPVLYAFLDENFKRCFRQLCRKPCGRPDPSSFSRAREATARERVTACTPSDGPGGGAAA
Sequence of KOP (P41145 whole entry): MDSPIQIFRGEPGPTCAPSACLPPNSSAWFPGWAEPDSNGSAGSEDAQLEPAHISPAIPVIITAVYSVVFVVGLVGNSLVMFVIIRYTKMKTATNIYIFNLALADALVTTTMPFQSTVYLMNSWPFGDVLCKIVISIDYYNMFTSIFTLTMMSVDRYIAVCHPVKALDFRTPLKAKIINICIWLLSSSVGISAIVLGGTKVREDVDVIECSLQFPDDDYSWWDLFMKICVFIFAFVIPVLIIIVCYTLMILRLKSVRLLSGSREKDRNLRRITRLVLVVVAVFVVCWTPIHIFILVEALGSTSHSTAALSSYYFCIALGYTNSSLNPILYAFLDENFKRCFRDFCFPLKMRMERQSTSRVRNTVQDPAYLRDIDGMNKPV

A word on the EC50: it is the concentration at which the effect is half-maximal. Higher therefore signals lower potency in that assay. `CC1(C)CNC(=O)C[C@H](NC(=O)CNC(=O)[C@@H](N)Cc2ccc(O)cc2)C(=O)N[C@@H](Cc2ccccc2)C(=O)NC(C(=O)N[C@@H](CCCNC(=N)N)C(=O)N[C@@H](CCCNC(=N)N)C(N)=O)CSS1` (stereo partly drawn) [CP4, c(Tyr-Gly-Asp-Phe-SSa-Arg-Arg)] (H-YGDF[ξC]RR-NH2; linker 3-5 via NHCH2CMe2S; N-terminus assumed): the EC50 on MOP, at KOP and on DOP was greater than 10000 nM each time.

As to `CC[C@H](C)[C@H](NC(=O)C1CSSC(C)(C)CNC(=O)C[C@@H](NC(=O)[C@H](Cc2ccccc2)NC(=O)CNC(=O)CNC(=O)[C@@H](N)Cc2ccc(O)cc2)C(=O)N[C@@H](CCCNC(=N)N)C(=O)N1)C(=O)N[C@@H](CCCNC(=N)N)C(=O)N1CCC[C@H]1C(=O)N[C@@H](CCCCN)C(N)=O` (stereo partly drawn) [DP-11-06, c(Tyr-Gly-Gly-Phe-D(Asp)-Arg-SSa-Ile-Arg-Pro-Lys)] (H-YGGF[dD]R[ξC]IRPK-NH2; linker 5-7 via NHCH2CMe2S; N-terminus assumed), the results for the half-life (in the data set “Serum stability”; in data set [1]; in data set [2]) were 30 min, 30 min and 360 min, respectively. This molecule also yielded an EC50 at KOP of 0.75 nM. Also, the “Peptide remained in trypsin after 360 minutes” value in data set [2] (n = 1) is “# (more than 90% remained after 360 minutes)”.

Consider `CC1(C)CNC(=O)C[C@@H](C(=O)N[C@@H](CCCNC(=N)N)C(=O)N[C@@H](CCCNC(=N)N)C(N)=O)NC(=O)[C@H](Cc2ccccc2)NC(=O)C(NC(=O)CNC(=O)[C@@H](N)Cc2ccc(O)cc2)CSS1` (stereo partly drawn) [CP3, c(Tyr-Gly-SSa-Phe-Asp-Arg-Arg)] (H-YG[ξC]FDRR-NH2; linker 3-5 via X1; N-terminus assumed), for which the EC50 on MOP, on KOP and at DOP was greater than 10000 nM throughout.

`CC(C)C[C@H](NC(=O)[C@H](Cc1ccc([N+](=O)[O-])cc1)NC(=O)CN(C)C(=O)[C@@H](N)Cc1ccc(O)cc1)C(=O)N[C@@H](CCCNC(=N)N)C(=O)N(C)[C@@H](CCCNC(=N)N)C(=O)NC1CSSC(C)(C)CNC(=O)C[C@@H](C(=O)N[C@@H](CCCCN)C(N)=O)NC(=O)[C@H](CCCNC(=N)N)NC1=O` (stereo partly drawn) [CP12, c(Tyr-Sar-(p-NO2-Phe)-Leu-Arg-NMA-SSa-Arg-Asp-Lys)] (H-Y[Sar][Phe(4-NO2)]LR[NMeR][ξC]RDK-NH2; linker 7-9 via X1; N-terminus assumed): the EC50 on KOP was determined as 7.5 nM. The results for the half-life in data set [1] and in data set [2] were less than 0.01 min and 0.019 min, respectively.

On to `CC(C)C[C@H](NC(=O)[C@H](Cc1ccc(Cl)cc1)NC(=O)CN(C)C(=O)[C@@H](N)Cc1ccc(O)cc1)C(=O)N[C@@H](CCCNC(=N)N)C(=O)N[C@H](CCCNC(=N)N)C(=O)NC1CSSC(C)(C)CNC(=O)C[C@@H](C(=O)N[C@@H](CCCCN)C(N)=O)NC(=O)[C@H](CCCNC(=N)N)NC1=O` (stereo partly drawn) [CP10, c(Tyr-Sar-(p-Cl-Phe)-Leu-Arg-D(Arg)-SSa-Arg-Asp-Lys)] (H-Y[Sar][Phe(4-Cl)]LR[dR][ξC]RDK-NH2; linker 7-9 via X1; N-terminus assumed), for which the EC50 was determined as 1600 nM on MOP, 0.94 nM at KOP and 127 nM at DOP. The half-life in data set [2] came to 2.3 min.

Turning to `CC1(C)CNC(=O)C[C@H](C(=O)N[C@@H](CCCNC(=N)N)C(=O)N[C@@H](CCCNC(=N)N)C(N)=O)NC(=O)[C@H](Cc2ccccc2)NC(=O)C(NC(=O)CNC(=O)[C@@H](N)Cc2ccc(O)cc2)CSS1` (stereo partly drawn) [DP-7-13, c(Tyr-Gly-SSa-Phe-D(Asp)-Arg-Arg)] (H-YG[ξC]F[dD]RR-NH2; linker 3-5 via X1; N-terminus assumed), the half-life in data set [1] and in data set [2] was less than 0.01 min in each case.

`CC1(C)CNC(=O)C[C@@H](C(=O)N[C@@H](CCCNC(=N)N)C(=O)N[C@@H](CCCNC(=N)N)C(N)=O)NC(=O)[C@H](Cc2ccccc2)NC(=O)CNC(=O)C(NC(=O)[C@@H](N)Cc2ccc(O)cc2)CSS1` (stereo partly drawn) [CP1, c(Tyr-SSa-Gly-Phe-L-Asp-Arg-Arg)]: the EC50 was 4530 nM on MOP, 1270 nM on KOP and greater than 10000 nM at DOP. Further, the half-life in data set [1] and in data set [2] was less than 0.01 min in each case.

In the case of `CC1(C)CNC(=O)C[C@@H](NC(=O)CNC(=O)[C@@H](N)Cc2ccc(O)cc2)C(=O)N[C@@H](Cc2ccccc2)C(=O)N[C@H](C(=O)N[C@@H](CCCNC(=N)N)C(=O)N[C@@H](CCCNC(=N)N)C(N)=O)CSS1` [DP-7-14, c(Tyr-Gly-D(Asp)-Phe-SSa-Arg-Arg)] (H-YG[dD]FCRR-NH2; linker 3-5 via NHCH2CMe2S), the half-life in data set [1] and in data set [2] was less than 0.01 min each time.

With `CC[C@H](C)[C@H](NC(=O)[C@H](CCCN=C(N)N)NC(=O)[C@H](CCCN=C(N)N)NC(=O)[C@H](CC(C)C)NC(=O)[C@H](Cc1ccccc1)NC(=O)CNC(=O)CNC(=O)[C@@H](N)Cc1ccc(O)cc1)C(=O)N[C@@H](CCCN=C(N)N)C(=O)N1CCC[C@H]1C(=O)N[C@@H](CCCCN)C(N)=O` [DP-11-00], on trypsin, the “Susceptibility to trypsin digestion” value is “highly susceptible” and the “Trypsin: complete degradation within” value is given as “within 1 h”.

Regarding `CC(C)C[C@H](NC(=O)[C@H](Cc1ccccc1)NC(=O)CNC(=O)CNC(=O)[C@@H](N)Cc1ccc(O)cc1)C(=O)N[C@@H](CCCNC(=N)N)C(=O)N[C@@H](CCCNC(=N)N)C(N)=O` [DP-7-00, Tyr-Gly-Gly-Phe-Leu-Arg-Arg], on trypsin, the “Susceptibility to trypsin digestion” value is recorded as “highly susceptible” and the “Trypsin: complete degradation within” value is “within 1 h”.

Source of the values: patent publication US20220089646A1 (THE UNIVERSITY OF QUEENSLAND, priority 2019, published 2022).
